Common to all, as to assay type: cell-based
Assay [1] has as its target T1, rat GCGr (Rattus norvegicus, UniProt P30082).
T1 construct: host or cells: Chinese hamster ovary-K1 cells
Briefly: Rat GCGr antagonism study: cAMP in the presence of 0.1 nM glucagon. The following applies: n = 3. The procedure:
Postincubation, medium was removed and cells lysed with 120 µL/well of 0.1 M hydrochloride + 0.5% nonionic, octylphenol ethoxylate surfactant. cAMP levels were measured using an indirect ELISA according to the manufacturer’s instructions (ADI-900-066, Enzo Life Sciences, United Kingdom), optical density was read at 405 nm on a Biotek ELx808 (Wolf Laboratories, York, United Kingdom). Data were plotted and […] efficacy values calculated.

In assay [2] the target is T1, rat GCGr. Nature of the assay: cAMP accumulation in CHO-K1 cells overexpressing the rat GCGr. Conditions: CHO cells overexpressing rGCGr; 30 min incubation, room temperature, 1 mM IBMX; cAMP ELISA; mean, n = 3. The procedure: (§1) All cell culture reagents were obtained from Invitrogen (Life Technologies Ltd, Paisley, United Kingdom) unless otherwise stated. Chinese hamster ovary-K1 cells overexpressing the rat GCGr were routinely maintained in Dulbecco’s modified eagle medium (DMEM) with 25 mM glucose and 1 mM sodium pyruvate supplemented with 10% fetal bovine serum, 25 mM hydroxyethyl piperazineethanesulfonic acid, 1% antibiotic (100 U/mL penicillin and 100 µg/mL streptomycin), and 1 × nonessential amino acids. Chinese hamster lung cells overexpressing the rat GLP-1r were maintained in the same DMEM but without additional hydroxyethyl piperazineethanesulfonic acid or nonessential amino acids.
(§2) Levels of cAMP accumulation was measured in Chinese hamster ovary-K1 cells overexpressing the rat GCGr (cDNA from Origene, Cambridge Bioscience, Cambridge, United Kingdom) or Chinese hamster lung cells overexpressing the rat GLP-1r (a gift from Bernard Thorens, University of Lausanne, Switzerland). […]
(§3) Data were plotted and in vivo efficacy values calculated.
(§4) cAMP in vitro efficacy and binding in vitro affinity were calculated using nonlinear regression with Prism version 5 software (GraphPad Software Inc, San Diego, California). Differences in cumulative food intake and body weight were analyzed using 1-way ANOVA and post hoc tests with Dunnett or Bonferroni correction (Prism version 5 software). […]
On the technique in general: cAMP levels reflect the balance of adenylyl cyclase and phosphodiesterase activity.

A further assay has as its target T2, rat GLP-1r (Rattus norvegicus, UniProt P32301).
T2 construct: expressed in transfected cells; host or cells: Chinese hamster lung cells
T2 sequence (P32301 22-463): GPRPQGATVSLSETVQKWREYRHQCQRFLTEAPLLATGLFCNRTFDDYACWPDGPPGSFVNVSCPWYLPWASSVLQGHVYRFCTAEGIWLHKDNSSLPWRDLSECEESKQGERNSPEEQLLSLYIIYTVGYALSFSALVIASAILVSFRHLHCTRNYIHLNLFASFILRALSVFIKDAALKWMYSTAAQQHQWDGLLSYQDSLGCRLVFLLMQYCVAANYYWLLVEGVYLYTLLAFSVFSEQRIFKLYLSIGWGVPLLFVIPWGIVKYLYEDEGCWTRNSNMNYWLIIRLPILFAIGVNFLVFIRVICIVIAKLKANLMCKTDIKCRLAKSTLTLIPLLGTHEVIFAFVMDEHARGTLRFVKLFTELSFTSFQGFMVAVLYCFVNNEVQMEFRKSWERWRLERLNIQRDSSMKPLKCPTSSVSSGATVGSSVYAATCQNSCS
Nature of the assay: cAMP accumulation in Chinese hamster lung cells overexpressing the rat GLP-1r. The following applies: Chinese hamster lung cells overexpressing rGLP-1r; 30 min incubation, room temperature, 1 mM IBMX; cAMP ELISA; mean, n = 3. The procedure:
as §1, §2, §3, §4

One may read the EC50 as the concentration giving half of the maximal effect. Higher therefore signals a less potent agent.

T1 sequence (P30082 27-485): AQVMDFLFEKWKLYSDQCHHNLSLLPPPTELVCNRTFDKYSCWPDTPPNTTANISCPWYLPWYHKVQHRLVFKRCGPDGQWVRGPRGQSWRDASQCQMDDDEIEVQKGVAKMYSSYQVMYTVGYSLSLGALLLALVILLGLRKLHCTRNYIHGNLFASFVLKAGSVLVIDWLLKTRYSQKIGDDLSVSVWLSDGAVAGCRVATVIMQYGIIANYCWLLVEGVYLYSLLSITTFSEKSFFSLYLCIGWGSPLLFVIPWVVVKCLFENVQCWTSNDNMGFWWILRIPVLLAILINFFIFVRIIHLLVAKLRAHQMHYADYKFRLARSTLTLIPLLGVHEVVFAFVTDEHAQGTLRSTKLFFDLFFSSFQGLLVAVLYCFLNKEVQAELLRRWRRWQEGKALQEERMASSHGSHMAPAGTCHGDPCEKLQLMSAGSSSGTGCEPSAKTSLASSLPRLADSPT

Consider `CC[C@H](C)[C@H](NC(=O)[C@H](CC(N)=O)NC(=O)[C@H](CC(N)=O)NC(=O)[C@H](CCCNC(=N)N)NC(=O)[C@H](CC(N)=O)NC(=O)[C@H](CCCNC(=N)N)NC(=O)[C@H](CCCCN)NC(=O)[C@@H](NC(=O)[C@H](CC(N)=O)NC(=O)[C@H](CCSC)NC(=O)[C@H](CC(C)C)NC(=O)[C@H](Cc1c[nH]c2ccccc12)NC(=O)[C@H](CCC(N)=O)NC(=O)[C@@H](NC(=O)[C@H](Cc1ccccc1)NC(=O)[C@H](CC(=O)O)NC(=O)[C@H](CCC(N)=O)NC(=O)[C@H](C)NC(=O)[C@H](CCCNC(=N)N)NC(=O)[C@H](CCCNC(=N)N)NC(=O)[C@H](CO)NC(=O)[C@H](CC(=O)O)NC(=O)[C@H](CC(C)C)NC(=O)[C@H](Cc1ccc(O)cc1)NC(=O)[C@H](CCCCN)NC(=O)[C@H](CO)NC(=O)[C@H](Cc1ccc(O)cc1)NC(=O)[C@H](CC(=O)O)NC(=O)[C@H](CO)NC(=O)[C@@H](NC(=O)[C@H](Cc1ccccc1)NC(=O)[C@@H](NC(=O)CNC(=O)[C@H](CCC(=O)O)NC(=O)[C@H](CO)NC(=O)[C@@H](N)Cc1c[nH]cn1)[C@@H](C)O)[C@@H](C)O)C(C)C)[C@@H](C)O)C(=O)N[C@@H](C)C(=O)O` [OXME3], for which, on rat GCGr [1] (30 nM peptide with 0.1 nM glucagon), the “increase of cAMP levels compared with glucagon stimulation alone” value was found to be 9%. In addition, the “decrease of glucagon-mediated cAMP accumulation, mean” value at rat GCGr [1] (all concentrations tested except 30 nM, with 0.1 nM glucagon, relative to glucagon alone) was 40.3%. Also, the 50% effective concentration (EC50) worked out at 160 nM on rat GCGr [2] and 8.1 nM on rat GLP-1r.

These data come from article PMC4701715 (Current Therapeutic Research, Clinical and Experimental, 2015).
